{"source": "PubChem BioAssay AID1259407", "about": "(Chemical Carcinogenesis Research Information System (CCRIS), 2018)", "test_system": "CCRIS mutagenicity, Ames/micronucleus/aberration tests", "test": "CCRIS mutagenicity studies", "key": {"[1]": {"conditions": "Test System: AMES SALMONELLA TYPHIMURIUM, Strain/Indicator: TA98, Metabolic Activation: NONE, Method: STANDARD PLATE"}, "[2]": {"conditions": "Test System: AMES SALMONELLA TYPHIMURIUM, Strain/Indicator: TA100, Metabolic Activation: NONE, Method: STANDARD PLATE"}, "[3]": {"conditions": "Test System: AMES SALMONELLA TYPHIMURIUM, Strain/Indicator: TA1535, Metabolic Activation: NONE, Method: STANDARD PLATE"}, "[4]": {"conditions": "Test System: AMES SALMONELLA TYPHIMURIUM, Strain/Indicator: TA1537, Metabolic Activation: NONE, Method: STANDARD PLATE"}, "[5]": {"conditions": "Test System: AMES SALMONELLA TYPHIMURIUM, Strain/Indicator: TA1538, Metabolic Activation: NONE, Method: STANDARD PLATE"}, "[6]": {"conditions": "Test System: MOUSE LYMPHOMA, Strain/Indicator: L5178Y (TK+/TK-), Metabolic Activation: NONE, Method: SUSPENSION/PLATE"}, "[7]": {"conditions": "Test System: MOUSE LYMPHOMA, Strain/Indicator: L5178Y (TK+/TK-), Metabolic Activation: RAT, LIVER, S-9, AROCLOR 1254, Method: SUSPENSION/PLATE"}}, "note": "Active and inactive are the calls of the source. The rule behind the calls is not given here. Where a SMILES comes first, the peptide text is derived from it. [ ]: non-standard residue; d: D form. pGlu = O=C1CC[C@@H](C(=O)O)N1; Thz = O=C(O)[C@@H]1CSCN1", "data": [{"compound": "O=C1c2ccc3nc(-c4ccccc4)sc3c2C(=O)c2ccc3nc(-c4ccccc4)sc3c21", "values": [{"measurement": "mutagenic call", "setting": "Test System: AMES SALMONELLA TYPHIMURIUM, Strain/Indicator: TA98, Metabolic Activation: HAMSTER, LIVER, S-9, AROCLOR 1254 (10%), Method: STANDARD PLATE", "result": "inactive; negative"}, {"measurement": "mutagenic call", "setting": "[1]", "result": "inactive; negative"}, {"measurement": "mutagenic call", "setting": "Test System: AMES SALMONELLA TYPHIMURIUM, Strain/Indicator: TA98, Metabolic Activation: RAT, LIVER, S-9, AROCLOR 1254 (10%), Method: STANDARD PLATE", "result": "inactive; negative"}, {"measurement": "mutagenic call", "setting": "Test System: AMES SALMONELLA TYPHIMURIUM, Strain/Indicator: TA100, Metabolic Activation: HAMSTER, LIVER, S-9, AROCLOR 1254 (10%), Method: STANDARD PLATE", "result": "inactive; negative"}, {"measurement": "mutagenic call", "setting": "[2]", "result": "inactive; negative"}, {"measurement": "mutagenic call", "setting": "Test System: AMES SALMONELLA TYPHIMURIUM, Strain/Indicator: TA100, Metabolic Activation: RAT, LIVER, S-9, AROCLOR 1254 (10%), Method: STANDARD PLATE", "result": "inactive; negative"}, {"measurement": "mutagenic call", "setting": "Test System: AMES SALMONELLA TYPHIMURIUM, Strain/Indicator: TA1535, Metabolic Activation: HAMSTER, LIVER, S-9, AROCLOR 1254 (10%), Method: STANDARD PLATE", "result": "inactive; negative"}, {"measurement": "mutagenic call", "setting": "[3]", "result": "inactive; negative"}, {"measurement": "mutagenic call", "setting": "Test System: AMES SALMONELLA TYPHIMURIUM, Strain/Indicator: TA1535, Metabolic Activation: RAT, LIVER, S-9, AROCLOR 1254 (10%), Method: STANDARD PLATE", "result": "inactive; negative"}, {"measurement": "mutagenic call", "setting": "Test System: AMES SALMONELLA TYPHIMURIUM, Strain/Indicator: TA1537, Metabolic Activation: HAMSTER, LIVER, S-9, AROCLOR 1254 (10%), Method: STANDARD PLATE", "result": "inactive; negative"}, {"measurement": "mutagenic call", "setting": "[4]", "result": "inactive; negative"}, {"measurement": "mutagenic call", "setting": "Test System: AMES SALMONELLA TYPHIMURIUM, Strain/Indicator: TA1537, Metabolic Activation: RAT, LIVER, S-9, AROCLOR 1254 (10%), Method: STANDARD PLATE", "result": "inactive; negative"}, {"measurement": "mutagenic call", "setting": "Test System: AMES SALMONELLA TYPHIMURIUM, Strain/Indicator: TA1538, Metabolic Activation: HAMSTER, LIVER, S-9, AROCLOR 1254 (10%), Method: STANDARD PLATE", "result": "inactive; negative"}, {"measurement": "mutagenic call", "setting": "[5]", "result": "inactive; negative"}, {"measurement": "mutagenic call", "setting": "Test System: AMES SALMONELLA TYPHIMURIUM, Strain/Indicator: TA1538, Metabolic Activation: RAT, LIVER, S-9, AROCLOR 1254 (10%), Method: STANDARD PLATE", "result": "inactive; negative"}, {"measurement": "mutagenic call", "setting": "[6]", "result": "inactive; negative"}, {"measurement": "mutagenic call", "setting": "[7]", "result": "active; positive"}]}, {"compound": "O=C([O-])[C@H](O)[C@@H](O)[C@H](O)[C@H](O)CO.O=C([O-])[C@H](O)[C@@H](O)[C@H](O)[C@H](O)CO.[Cu+2]", "values": [{"measurement": "mutagenic call", "setting": "Test System: AMES SALMONELLA TYPHIMURIUM, Strain/Indicator: TA97, Metabolic Activation: NONE, Method: PREINCUBATION", "result": "inactive; negative"}, {"measurement": "mutagenic call", "setting": "Test System: AMES SALMONELLA TYPHIMURIUM, Strain/Indicator: TA97, Metabolic Activation: S-9, Method: PREINCUBATION", "result": "inactive; negative"}, {"measurement": "mutagenic call", "setting": "Test System: AMES SALMONELLA TYPHIMURIUM, Strain/Indicator: TA102, Metabolic Activation: NONE, Method: PREINCUBATION", "result": "inactive; negative"}, {"measurement": "mutagenic call", "setting": "Test System: AMES SALMONELLA TYPHIMURIUM, Strain/Indicator: TA102, Metabolic Activation: S-9, Method: PREINCUBATION", "result": "inactive; negative"}]}, {"compound": "NC(=O)N(CCCCO)N=O", "values": [{"measurement": "mutagenic call", "setting": "Test System: E. COLI B, Strain/Indicator: H/R30R, Metabolic Activation: NONE", "result": "active; positive"}, {"measurement": "mutagenic call", "setting": "Test System: E. COLI B, Strain/Indicator: HS30R, Metabolic Activation: NONE", "result": "active; positive"}]}, {"compound": "CCOc1ccc(N(O)C(C)=O)cc1", "values": [{"measurement": "mutagenic call", "setting": "End Point: IN VITRO MICRONUCLEUS, Test System: RAT KIDNEY FIBROBLAST NRK-49F, Metabolic Activation: NONE", "result": "active; positive"}, {"measurement": "mutagenic call", "setting": "Test System: AMES SALMONELLA TYPHIMURIUM, Strain/Indicator: TA100, Metabolic Activation: HAMSTER, LIVER, S-9, AROCLOR 1254, Method: LIQUID SUSPENSION", "result": "active; positive"}, {"measurement": "mutagenic call", "setting": "Test System: AMES SALMONELLA TYPHIMURIUM, Strain/Indicator: TA100, Metabolic Activation: HAMSTER, LIVER, S-9, KANECHLOR 400 (WITHOUT NADPH GENERATING SYSTEM), Method: PREINCUBATION", "result": "active; positive"}, {"measurement": "mutagenic call", "setting": "Test System: AMES SALMONELLA TYPHIMURIUM, Strain/Indicator: TA100, Metabolic Activation: NONE, Method: PREINCUBATION", "result": "inactive; negative"}, {"measurement": "mutagenic call", "setting": "Test System: AMES SALMONELLA TYPHIMURIUM, Strain/Indicator: TA100, Metabolic Activation: RAT, LIVER, S-9, PCB, Method: LIQUID SUSPENSION", "result": "active; positive"}]}, {"compound": "O=C(CCCCl)N=c1sn(C(=O)CCCCl)c2ccc(Cl)cc12", "values": [{"measurement": "mutagenic call", "setting": "Test System: AMES SALMONELLA TYPHIMURIUM, Strain/Indicator: TA100, Metabolic Activation: S-9, Method: STANDARD PLATE", "result": "active; positive"}]}, {"compound": "O=C1CC[C@@H](C(=O)N2CSC[C@H]2C(=O)O)N1", "note": "([pGlu]-[Thz]-OH)", "values": [{"measurement": "mutagenic call", "setting": "[1]", "result": "inactive; negative"}, {"measurement": "mutagenic call", "setting": "Test System: AMES SALMONELLA TYPHIMURIUM, Strain/Indicator: TA98, Metabolic Activation: RAT, LIVER, S-9, AROCLOR 1254, Method: STANDARD PLATE", "result": "inactive; negative"}, {"measurement": "mutagenic call", "setting": "[2]", "result": "inactive; negative"}, {"measurement": "mutagenic call", "setting": "Test System: AMES SALMONELLA TYPHIMURIUM, Strain/Indicator: TA100, Metabolic Activation: RAT, LIVER, S-9, AROCLOR 1254, Method: STANDARD PLATE", "result": "inactive; negative"}, {"measurement": "mutagenic call", "setting": "[3]", "result": "inactive; negative"}, {"measurement": "mutagenic call", "setting": "Test System: AMES SALMONELLA TYPHIMURIUM, Strain/Indicator: TA1535, Metabolic Activation: RAT, LIVER, S-9, AROCLOR 1254, Method: STANDARD PLATE", "result": "inactive; negative"}, {"measurement": "mutagenic call", "setting": "[4]", "result": "inactive; negative"}, {"measurement": "mutagenic call", "setting": "Test System: AMES SALMONELLA TYPHIMURIUM, Strain/Indicator: TA1537, Metabolic Activation: RAT, LIVER, S-9, AROCLOR 1254, Method: STANDARD PLATE", "result": "inactive; negative"}, {"measurement": "mutagenic call", "setting": "[5]", "result": "inactive; negative"}, {"measurement": "mutagenic call", "setting": "Test System: AMES SALMONELLA TYPHIMURIUM, Strain/Indicator: TA1538, Metabolic Activation: RAT, LIVER, S-9, AROCLOR 1254, Method: STANDARD PLATE", "result": "inactive; negative"}, {"measurement": "mutagenic call", "setting": "[6]", "result": "inactive; negative"}, {"measurement": "mutagenic call", "setting": "[7]", "result": "inactive; negative"}, {"measurement": "mutagenic call", "setting": "Test System: UDS HELA CELLS, Strain/Indicator: THY INCORP, Metabolic Activation: NONE, Method: AUTORADIOGRAPHY", "result": "inactive; negative"}, {"measurement": "mutagenic call", "setting": "Test System: UDS HELA CELLS, Strain/Indicator: THY INCORP, Metabolic Activation: RAT, LIVER, S-9, AROCLOR 1254, Method: AUTORADIOGRAPHY", "result": "inactive; negative"}]}, {"compound": "O=C(Cc1ccccc1)NC(Cc1ccc(Cl)cc1)C(=O)O", "note": "(stereo not given)", "values": [{"measurement": "mutagenic call", "setting": "Test System: AMES SALMONELLA TYPHIMURIUM, Strain/Indicator: TA98, Metabolic Activation: NONE", "result": "inactive; negative"}, {"measurement": "mutagenic call", "setting": "Test System: AMES SALMONELLA TYPHIMURIUM, Strain/Indicator: TA100, Metabolic Activation: NONE", "result": "active; positive"}, {"measurement": "mutagenic call", "setting": "Test System: AMES SALMONELLA TYPHIMURIUM, Strain/Indicator: TA1535, Metabolic Activation: NONE", "result": "inactive; negative"}, {"measurement": "mutagenic call", "setting": "Test System: AMES SALMONELLA TYPHIMURIUM, Strain/Indicator: TA1537, Metabolic Activation: NONE", "result": "inactive; negative"}, {"measurement": "mutagenic call", "setting": "Test System: E. COLI, Strain/Indicator: AB2462 UVRA, Metabolic Activation: NONE, Method: SPOT TEST", "result": "inactive; negative"}]}, {"compound": "BrCc1c2ccccc2cc2ccc3ccccc3c12", "values": [{"measurement": "mutagenic call", "setting": "[1]", "result": "active; positive"}, {"measurement": "mutagenic call", "setting": "[2]", "result": "active; positive"}]}]}
